The values that follow come from patent US20060211760A1, “Indolamide derivatives which possess glycogen phosphorylase inhibitory activity” (AstraZeneca AB, priority 2003, published 2006).

The structures appear in SMILES notation. pIC50: −log10 of the molar value.

For orientation: pIC50 means the IC50 on a negative log10 scale, so that one unit is a factor of ten.

For assay [1], the system named is conscious dogs. The following applies: following a glucagon challenge; cited from earlier work.
For assay [2], the system named is db/db and ob/ob mice. The settings on record: db/db and ob/ob mice following treatment; cited from earlier work.
In assay [3] the test system is hepatocytes. The following applies: cited from earlier work.
Assay [4] has as its target T1, Human recombinant liver glycogen phosphorylase a (hrl GPa) (Homo sapiens, UniProt P06737).
T1 sequence (P06737 1-847): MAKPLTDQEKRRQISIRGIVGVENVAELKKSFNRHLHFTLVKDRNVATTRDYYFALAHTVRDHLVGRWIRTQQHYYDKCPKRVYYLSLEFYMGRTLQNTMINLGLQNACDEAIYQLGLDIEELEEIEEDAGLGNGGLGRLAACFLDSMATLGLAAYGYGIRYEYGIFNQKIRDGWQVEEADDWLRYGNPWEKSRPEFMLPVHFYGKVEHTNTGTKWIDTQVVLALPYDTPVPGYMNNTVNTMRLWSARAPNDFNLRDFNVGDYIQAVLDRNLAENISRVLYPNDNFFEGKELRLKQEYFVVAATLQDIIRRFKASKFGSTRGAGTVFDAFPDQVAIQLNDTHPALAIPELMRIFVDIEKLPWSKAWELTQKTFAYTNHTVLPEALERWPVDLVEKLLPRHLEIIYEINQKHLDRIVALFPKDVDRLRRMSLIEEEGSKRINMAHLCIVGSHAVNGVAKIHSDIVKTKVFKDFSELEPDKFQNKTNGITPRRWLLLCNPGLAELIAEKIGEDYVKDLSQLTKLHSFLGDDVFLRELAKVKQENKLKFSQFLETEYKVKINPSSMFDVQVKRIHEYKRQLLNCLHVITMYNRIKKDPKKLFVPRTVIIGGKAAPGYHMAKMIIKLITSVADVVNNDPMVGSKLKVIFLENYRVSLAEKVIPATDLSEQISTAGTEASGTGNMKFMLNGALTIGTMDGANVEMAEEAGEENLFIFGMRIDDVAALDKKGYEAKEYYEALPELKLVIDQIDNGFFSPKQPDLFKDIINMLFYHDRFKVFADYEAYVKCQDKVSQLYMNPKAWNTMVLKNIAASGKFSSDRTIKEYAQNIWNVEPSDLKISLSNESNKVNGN
In words: glycogen phosphorylase inhibition, multienzyme coupled assay of glucose-1-phosphate production from glycogen. Type of assay: biochemical. The settings on record: hrl GPa 20 nM, 6 hours at 30° C., 1% DMSO. How it is done: The activity of the compounds is determined by measuring the inhibitory effect of the compounds on glycogen degradation, the production of glucose-1-phosphate from glycogen is monitored by the multienzyme coupled assay, as described in EP 0 846 464 A2, general method of Pesce et al (Pesce, M A, Bodourian, S H, Harris, R C, and Nicholson, J F (1977) Clinical Chemistry 23, […]). The reactions were in 384well microplate format in a volume of 50 μl. The change in fluorescence due to the conversion of the co-factor NAD to NADH is measured at 340 nm excitation, 465nm emission in a Tecan Ultra Multifunctional Microplate Reader. The reaction is in 50 mM HEPES, 3.5 mM KH2PO4, 2.5 mM MgCl2, 2.5 mM ethylene glycol-bis(b-aminoethyl ether) N,N,N′,N′-tetraacetic acid, 100 mM KCl, 8 mM D-(+)-glucose pH7.2, containing 0.5 mM dithiothreitol, the assay buffer solution. Human recombinant liver glycogen phosphorylase a (hrl GPa) 20 nM is pre-incubated in assay buffer solution with 6.25 mM NAD, 1.25 mg type m glycogen at 1.25 mg ml^−1 the reagent buffer, for 30 minutes. […] The non-inhibited activity of GPa is measured in the presence of 10 μl 5% DMSO in assay buffer solution and maximum inhibition measured in the presence of 5 mgs ml^−1 N-ethylmaleimide. […] Relative Fluoresence Units (RFUs) are measured at 340 nm excitation, 465 nm emission. […]

Consider `CCN1C(C)=C(C(=O)OC(C)C)C(c2ccccc2Cl)C2=C1COC2=O` (stereo not drawn) [Bay R 3401], for which, in assay [1], the arterial plasma glucose entry is reported as “reduced significantly” and the hepatic glucose output entry was “reduced significantly”.
For `CN(C)C(=O)[C@H](O)[C@H](Cc1ccccc1)NC(=O)c1cc2cc(Cl)ccc2[nH]1` [CP91149], the plasma glucose concentration entry in assay [2] is listed as “reduced, in a dose related manner”. Also, in assay [3], the glucagon stimulated glycogenolysis entry was “reduce” and the glucose output entry is recorded as “reduce”.
For the compound `O=C(N[C@@H](Cc1ccc(F)cc1)C(=O)N1CCC(O)CC1)c1cc2cc(Cl)ccc2[nH]1` [CP320626], the plasma glucose concentration result in assay [2] is recorded as “reduced, in a dose related manner”. Besides, in assay [3], the glucagon stimulated glycogenolysis entry is “reduce” and the glucose output entry was “reduce”.
Consider `O=C(N[C@@H]1Cc2ccccc2[C@H]1CO)c1cc2cc(Cl)ccc2[nH]1` [Example 2, 5-Chloro-N-[(1R,2R)-1-(hydroxymethyl)-2,3-dihydro-1H-inden-2-yl]-indole-2-carboxamide], for which, in assay [4], the pIC50 is 6.06.
